Assay results taken from PubChem BioAssay (NCI).
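In this assay, cells in 96-well plates receive the compound at five concentrations for 48 hours. Endpoints are linearly interpolated between the surrounding concentrations. TGI is the concentration that stops growth completely.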

Experiments:
Test in all cases: NCI anticancer screen, dose series, 48 h
786-0 renal = system: 786-0 renal
A498 renal = system: A498 renal
A549 NSCLC = system: A549 NSCLC
ACHN renal = system: ACHN renal
CAKI-1 renal = system: CAKI-1 renal
CCRF-CEM leukemia = system: CCRF-CEM leukemia
COLO 205 colon = system: COLO 205 colon
DLD-1 colon = system: DLD-1 colon
DMS 114 small cell lung = system: DMS 114 small cell lung
DMS 273 small cell lung = system: DMS 273 small cell lung
EKVX NSCLC = system: EKVX NSCLC
HCC-2998 colon = system: HCC-2998 colon
HCT-116 colon = system: HCT-116 colon
HCT-15 colon = system: HCT-15 colon
HOP-18 NSCLC = system: HOP-18 NSCLC
HOP-62 NSCLC = system: HOP-62 NSCLC
HOP-92 NSCLC = system: HOP-92 NSCLC
HT29 colon = system: HT29 colon
IGROV1 ovarian = system: IGROV1 ovarian
K-562 leukemia = system: K-562 leukemia
KM12 colon = system: KM12 colon
KM20L2 colon = system: KM20L2 colon
LOX IMVI melanoma = system: LOX IMVI melanoma
M14 melanoma = system: M14 melanoma
M19-MEL melanoma = system: M19-MEL melanoma
MALME-3M melanoma = system: MALME-3M melanoma
MOLT-4 leukemia = system: MOLT-4 leukemia
NCI-H226 lung = system: NCI-H226 lung
NCI-H23 lung = system: NCI-H23 lung
NCI-H460 lung = system: NCI-H460 lung
OVCAR-3 ovarian = system: OVCAR-3 ovarian
OVCAR-4 ovarian = system: OVCAR-4 ovarian
OVCAR-5 ovarian = system: OVCAR-5 ovarian
OVCAR-8 ovarian = system: OVCAR-8 ovarian
RPMI-8226 leukemia = system: RPMI-8226 leukemia
SF-268 CNS = system: SF-268 CNS
SF-295 CNS = system: SF-295 CNS
SF-539 CNS = system: SF-539 CNS
SK-MEL-2 melanoma = system: SK-MEL-2 melanoma
SK-MEL-28 melanoma = system: SK-MEL-28 melanoma
SK-MEL-5 melanoma = system: SK-MEL-5 melanoma
SK-OV-3 ovarian = system: SK-OV-3 ovarian
SN12C renal = system: SN12C renal
SNB-19 CNS = system: SNB-19 CNS
SNB-75 CNS = system: SNB-75 CNS
SNB-78 CNS = system: SNB-78 CNS
SW-620 colon = system: SW-620 colon
TK-10 renal = system: TK-10 renal
U251 CNS = system: U251 CNS
UACC-257 melanoma = system: UACC-257 melanoma
UACC-62 melanoma = system: UACC-62 melanoma
UO-31 renal = system: UO-31 renal
XF 498 CNS = system: XF 498 CNS
HL-60(TB) leukemia = system: HL-60(TB) leukemia
LXFL 529 NSCLC = system: LXFL 529 NSCLC
NCI-H522 lung = system: NCI-H522 lung
RXF 393 renal = system: RXF 393 renal
RXF-631 renal = system: RXF-631 renal
SR leukemia = system: SR leukemia

`O=C1/C(=C\c2ccccc2)c2ccccc2N1/N=C\c1ccccc1` gave a TGI (786-0 renal) of over 100 µM, a TGI (A498 renal) of over 100 µM and a TGI (A549 NSCLC) of over 100 µM. It also gave a TGI (ACHN renal) of over 100 µM, a TGI (CAKI-1 renal) of over 100 µM and a TGI (CCRF-CEM leukemia) of over 100 µM. For the same compound, the TGI (COLO 205 colon) was over 100 µM, the TGI (DLD-1 colon) was over 100 µM and the TGI (DMS 114 small cell lung) was over 100 µM. It also gave a TGI (DMS 273 small cell lung) of over 100 µM, a TGI (EKVX NSCLC) of over 100 µM and a TGI (HCC-2998 colon) of over 100 µM. It also gave a TGI (HCT-116 colon) of over 100 µM, a TGI (HCT-15 colon) of over 100 µM and a TGI (HOP-18 NSCLC) of over 100 µM. For the same compound, the TGI (HOP-62 NSCLC) was over 100 µM, the TGI (HOP-92 NSCLC) was over 100 µM and the TGI (HT29 colon) was over 100 µM. It also gave a TGI (IGROV1 ovarian) of over 100 µM, a TGI (K-562 leukemia) of over 100 µM and a TGI (KM12 colon) of over 100 µM. For the same compound, the TGI (KM20L2 colon) was over 100 µM, the TGI (LOX IMVI melanoma) was over 100 µM and the TGI (M14 melanoma) was over 100 µM. For the same compound, the TGI (M19-MEL melanoma) was over 100 µM, the TGI (MALME-3M melanoma) was over 100 µM and the TGI (MOLT-4 leukemia) was over 100 µM. The TGI (NCI-H226 lung) was over 100 µM, the TGI (NCI-H23 lung) was over 100 µM and the TGI (NCI-H460 lung) was over 100 µM. For the same compound, the TGI (OVCAR-3 ovarian) was over 100 µM, the TGI (OVCAR-4 ovarian) was over 100 µM and the TGI (OVCAR-5 ovarian) was over 100 µM. For the same compound, the TGI (OVCAR-8 ovarian) was over 100 µM, the TGI (RPMI-8226 leukemia) was over 100 µM and the TGI (SF-268 CNS) was over 100 µM. It also gave a TGI (SF-295 CNS) of over 100 µM, a TGI (SF-539 CNS) of over 100 µM and a TGI (SK-MEL-2 melanoma) of over 100 µM. For the same compound, the TGI (SK-MEL-28 melanoma) was over 100 µM, the TGI (SK-MEL-5 melanoma) was over 100 µM and the TGI (SK-OV-3 ovarian) was over 100 µM. It also gave a TGI (SN12C renal) of over 100 µM, a TGI (SNB-19 CNS) of over 100 µM and a TGI (SNB-75 CNS) of over 100 µM. It also gave a TGI (SNB-78 CNS) of over 100 µM, a TGI (SW-620 colon) of over 100 µM and a TGI (TK-10 renal) of over 100 µM. It also gave a TGI (U251 CNS) of over 100 µM, a TGI (UACC-257 melanoma) of over 100 µM and a TGI (UACC-62 melanoma) of over 100 µM. For the same compound, the TGI (UO-31 renal) was over 100 µM and the TGI (XF 498 CNS) was over 100 µM.
`Nc1ccc(C2=Nc3ccccc3SC(c3ccccc3O)C2)cc1` (stereo unspecified) was tested, and the TGI (786-0 renal) was 73.6 µM, the TGI (A498 renal) was 74.1 µM and the TGI (A549 NSCLC) was over 100 µM. For the same compound, the TGI (ACHN renal) was over 100 µM, the TGI (CAKI-1 renal) was over 100 µM and the TGI (CCRF-CEM leukemia) was 32.5 µM. The TGI (COLO 205 colon) was over 100 µM, the TGI (DLD-1 colon) was over 100 µM and the TGI (DMS 114 small cell lung) was 49.4 µM. For the same compound, the TGI (DMS 273 small cell lung) was over 100 µM, the TGI (EKVX NSCLC) was over 100 µM and the TGI (HCC-2998 colon) was over 100 µM. It also gave a TGI (HCT-15 colon) of over 100 µM, a TGI (HL-60(TB) leukemia) of 62.7 µM and a TGI (HOP-18 NSCLC) of over 100 µM. The TGI (HOP-62 NSCLC) was over 100 µM, the TGI (HT29 colon) was over 100 µM and the TGI (IGROV1 ovarian) was over 100 µM. The TGI (K-562 leukemia) was 51.6 µM, the TGI (KM12 colon) was over 100 µM and the TGI (KM20L2 colon) was over 100 µM. For the same compound, the TGI (LOX IMVI melanoma) was over 100 µM, the TGI (LXFL 529 NSCLC) was over 100 µM and the TGI (M14 melanoma) was over 100 µM. For the same compound, the TGI (M19-MEL melanoma) was over 100 µM, the TGI (MALME-3M melanoma) was over 100 µM and the TGI (MOLT-4 leukemia) was 58.5 µM. The TGI (NCI-H226 lung) was over 100 µM, the TGI (NCI-H23 lung) was over 100 µM and the TGI (NCI-H460 lung) was over 100 µM. For the same compound, the TGI (NCI-H522 lung) was 64.9 µM, the TGI (OVCAR-3 ovarian) was over 100 µM and the TGI (OVCAR-4 ovarian) was over 100 µM. The TGI (OVCAR-5 ovarian) was over 100 µM, the TGI (OVCAR-8 ovarian) was over 100 µM and the TGI (RPMI-8226 leukemia) was 49.7 µM. For the same compound, the TGI (RXF 393 renal) was over 100 µM, the TGI (RXF-631 renal) was over 100 µM and the TGI (SF-268 CNS) was over 100 µM. For the same compound, the TGI (SF-295 CNS) was over 100 µM, the TGI (SF-539 CNS) was over 100 µM and the TGI (SK-MEL-2 melanoma) was over 100 µM. It also gave a TGI (SK-MEL-28 melanoma) of over 100 µM, a TGI (SK-MEL-5 melanoma) of over 100 µM and a TGI (SK-OV-3 ovarian) of over 100 µM. It also gave a TGI (SN12C renal) of over 100 µM, a TGI (SNB-19 CNS) of over 100 µM and a TGI (SNB-75 CNS) of 93.3 µM. It also gave a TGI (SW-620 colon) of over 100 µM, a TGI (TK-10 renal) of over 100 µM and a TGI (U251 CNS) of over 100 µM. It also gave a TGI (UACC-257 melanoma) of over 100 µM, a TGI (UACC-62 melanoma) of over 100 µM and a TGI (UO-31 renal) of over 100 µM. It also gave a TGI (XF 498 CNS) of 78.5 µM.
`O=C(CC(=O)c1ccccc1)C(=O)NC12CC3CC(CC(C3)C1)C2` showed a TGI (786-0 renal) of 99.7 µM, a TGI (A498 renal) of over 100 µM and a TGI (A549 NSCLC) of over 100 µM. It also gave a TGI (ACHN renal) of over 100 µM, a TGI (CAKI-1 renal) of over 100 µM and a TGI (CCRF-CEM leukemia) of over 80.4 µM. For the same compound, the TGI (COLO 205 colon) was over 64.8 µM, the TGI (DLD-1 colon) was over 70 µM and the TGI (DMS 114 small cell lung) was over 58.4 µM. For the same compound, the TGI (DMS 273 small cell lung) was over 70.2 µM, the TGI (EKVX NSCLC) was over 100 µM and the TGI (HCC-2998 colon) was over 100 µM. For the same compound, the TGI (HCT-116 colon) was over 100 µM, the TGI (HCT-15 colon) was over 54.3 µM and the TGI (HL-60(TB) leukemia) was over 69.1 µM. For the same compound, the TGI (HOP-18 NSCLC) was over 100 µM, the TGI (HOP-62 NSCLC) was over 100 µM and the TGI (HOP-92 NSCLC) was over 100 µM. The TGI (HT29 colon) was over 100 µM, the TGI (IGROV1 ovarian) was over 100 µM and the TGI (K-562 leukemia) was over 100 µM. It also gave a TGI (KM12 colon) of over 100 µM, a TGI (KM20L2 colon) of over 100 µM and a TGI (LOX IMVI melanoma) of over 50 µM. It also gave a TGI (LXFL 529 NSCLC) of over 100 µM, a TGI (M14 melanoma) of over 100 µM and a TGI (M19-MEL melanoma) of over 100 µM. It also gave a TGI (MALME-3M melanoma) of over 100 µM, a TGI (MOLT-4 leukemia) of over 100 µM and a TGI (NCI-H226 lung) of over 100 µM. It also gave a TGI (NCI-H23 lung) of over 100 µM, a TGI (NCI-H460 lung) of over 56.9 µM and a TGI (NCI-H522 lung) of over 100 µM. It also gave a TGI (OVCAR-3 ovarian) of over 100 µM, a TGI (OVCAR-4 ovarian) of over 100 µM and a TGI (OVCAR-5 ovarian) of over 100 µM. The TGI (OVCAR-8 ovarian) was over 100 µM, the TGI (RPMI-8226 leukemia) was over 66 µM and the TGI (RXF 393 renal) was over 47.3 µM. For the same compound, the TGI (SF-268 CNS) was over 100 µM, the TGI (SF-295 CNS) was over 100 µM and the TGI (SF-539 CNS) was over 100 µM. For the same compound, the TGI (SK-MEL-2 melanoma) was over 100 µM, the TGI (SK-MEL-28 melanoma) was over 100 µM and the TGI (SK-MEL-5 melanoma) was over 100 µM. For the same compound, the TGI (SK-OV-3 ovarian) was over 100 µM, the TGI (SN12C renal) was over 100 µM and the TGI (SNB-19 CNS) was over 100 µM. The TGI (SNB-75 CNS) was over 100 µM, the TGI (SNB-78 CNS) was over 100 µM and the TGI (SR leukemia) was over 100 µM. The TGI (SW-620 colon) was over 58.7 µM, the TGI (TK-10 renal) was over 100 µM and the TGI (U251 CNS) was over 100 µM. It also gave a TGI (UACC-257 melanoma) of over 100 µM, a TGI (UACC-62 melanoma) of over 100 µM and a TGI (UO-31 renal) of over 100 µM. The TGI (XF 498 CNS) was over 100 µM.
